Data reported in paper PMC5651568, “Comparative characterization of all cellulosomal cellulases from Clostridium thermocellum reveals high diversity in endoglucanase product formation essential for complex activity” (Biotechnology for Biofuels, 2017).

Assays:
Assay in all cases: TLC product analysis
Type in all cases: biochemical
Conditions in all cases: 60 °C, MOPS buffer, 10 mM CaCl2
Cel9T = molecular target: T1, Cel9T (Acetivibrio thermocellus, UniProt A3DJ82)
T1 construct: gene Cthe_2812; signal peptide removed, dockerin kept, His-tag, E. coli BL21
T1 sequence (A3DJ82 36-611): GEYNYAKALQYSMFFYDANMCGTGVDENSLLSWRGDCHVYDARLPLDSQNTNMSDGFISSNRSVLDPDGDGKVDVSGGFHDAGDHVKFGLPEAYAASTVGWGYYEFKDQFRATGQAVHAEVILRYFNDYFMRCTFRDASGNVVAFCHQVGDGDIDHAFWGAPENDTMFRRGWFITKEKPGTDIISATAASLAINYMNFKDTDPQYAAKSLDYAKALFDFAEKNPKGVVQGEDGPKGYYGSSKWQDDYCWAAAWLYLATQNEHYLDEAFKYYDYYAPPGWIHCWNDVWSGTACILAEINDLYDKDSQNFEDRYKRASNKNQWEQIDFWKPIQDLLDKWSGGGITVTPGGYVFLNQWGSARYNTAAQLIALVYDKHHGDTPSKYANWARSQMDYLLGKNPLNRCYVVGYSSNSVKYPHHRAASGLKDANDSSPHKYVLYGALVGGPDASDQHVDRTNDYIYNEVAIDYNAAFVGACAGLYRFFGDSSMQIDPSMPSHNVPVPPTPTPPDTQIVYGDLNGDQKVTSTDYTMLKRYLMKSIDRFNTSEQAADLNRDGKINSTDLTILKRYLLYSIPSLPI

Cel9D = molecular target: T2, Cel9D (Acetivibrio thermocellus, UniProt A3DDN1)
T2 construct: gene celD; signal peptide removed, Ig-like module and dockerin kept, His-tag, E. coli BL21
T2 sequence (A3DDN1 42-649): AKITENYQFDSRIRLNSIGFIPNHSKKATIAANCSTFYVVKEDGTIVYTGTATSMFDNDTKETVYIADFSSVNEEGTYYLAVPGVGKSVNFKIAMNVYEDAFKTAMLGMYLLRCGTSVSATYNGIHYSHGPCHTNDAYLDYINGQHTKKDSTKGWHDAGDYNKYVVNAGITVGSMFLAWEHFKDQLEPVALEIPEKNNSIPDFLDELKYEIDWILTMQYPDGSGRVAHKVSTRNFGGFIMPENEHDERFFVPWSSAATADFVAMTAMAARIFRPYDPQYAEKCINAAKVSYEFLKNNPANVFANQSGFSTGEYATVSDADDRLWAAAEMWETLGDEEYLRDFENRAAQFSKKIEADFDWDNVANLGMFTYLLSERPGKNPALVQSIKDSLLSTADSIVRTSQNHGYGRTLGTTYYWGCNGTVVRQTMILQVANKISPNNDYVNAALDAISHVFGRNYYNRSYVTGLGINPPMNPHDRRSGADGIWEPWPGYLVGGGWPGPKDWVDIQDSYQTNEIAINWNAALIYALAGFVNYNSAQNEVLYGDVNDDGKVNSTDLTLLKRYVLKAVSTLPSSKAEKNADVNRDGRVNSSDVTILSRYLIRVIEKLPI

Cbh9A = molecular target: T3, Cbh9A (Acetivibrio thermocellus, UniProt A3DCH2)
T3 construct: gene Cthe_0413; signal peptide removed, dockerin kept, His-tag, E. coli BL21
T3 sequence (A3DCH2 28-1224): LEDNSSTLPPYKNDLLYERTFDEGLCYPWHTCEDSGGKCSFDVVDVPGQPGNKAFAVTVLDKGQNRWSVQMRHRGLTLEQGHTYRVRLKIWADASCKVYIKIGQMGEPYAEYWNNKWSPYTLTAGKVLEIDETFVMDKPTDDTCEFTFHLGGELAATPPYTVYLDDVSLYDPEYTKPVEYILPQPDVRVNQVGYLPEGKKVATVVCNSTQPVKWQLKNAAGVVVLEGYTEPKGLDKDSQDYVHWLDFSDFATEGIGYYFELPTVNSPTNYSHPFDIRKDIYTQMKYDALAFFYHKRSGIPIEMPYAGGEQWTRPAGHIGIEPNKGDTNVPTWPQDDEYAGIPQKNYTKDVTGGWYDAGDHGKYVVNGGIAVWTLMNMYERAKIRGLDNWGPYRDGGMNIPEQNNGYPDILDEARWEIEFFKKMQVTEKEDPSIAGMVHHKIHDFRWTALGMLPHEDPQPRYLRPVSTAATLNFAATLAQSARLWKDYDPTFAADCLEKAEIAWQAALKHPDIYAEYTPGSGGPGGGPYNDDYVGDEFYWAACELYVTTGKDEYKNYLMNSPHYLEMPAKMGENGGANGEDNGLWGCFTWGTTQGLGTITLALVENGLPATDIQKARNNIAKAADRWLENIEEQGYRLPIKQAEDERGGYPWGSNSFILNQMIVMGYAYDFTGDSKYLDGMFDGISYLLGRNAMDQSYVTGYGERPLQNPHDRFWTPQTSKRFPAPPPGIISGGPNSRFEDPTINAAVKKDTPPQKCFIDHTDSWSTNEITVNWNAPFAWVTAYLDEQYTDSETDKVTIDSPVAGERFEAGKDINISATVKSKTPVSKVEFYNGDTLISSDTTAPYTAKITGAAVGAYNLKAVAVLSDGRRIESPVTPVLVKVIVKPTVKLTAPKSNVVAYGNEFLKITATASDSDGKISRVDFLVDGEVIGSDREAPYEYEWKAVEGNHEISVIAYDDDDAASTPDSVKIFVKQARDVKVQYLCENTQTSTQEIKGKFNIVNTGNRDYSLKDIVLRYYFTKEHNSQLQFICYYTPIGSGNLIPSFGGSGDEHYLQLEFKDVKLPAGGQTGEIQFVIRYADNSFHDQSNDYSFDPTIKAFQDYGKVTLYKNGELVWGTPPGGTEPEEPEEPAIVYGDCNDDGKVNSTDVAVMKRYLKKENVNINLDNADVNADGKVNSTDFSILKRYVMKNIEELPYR

Cel9-44J = molecular target: T4, Cel9-44J (Acetivibrio thermocellus, UniProt A3DD30)
T4 construct: gene Cthe_0624; signal peptide removed, GH9 and GH44 modules, dockerin kept, His-tag, codon-optimised synthetic gene, E. coli BL21
T4 sequence (A3DD30 28-1601): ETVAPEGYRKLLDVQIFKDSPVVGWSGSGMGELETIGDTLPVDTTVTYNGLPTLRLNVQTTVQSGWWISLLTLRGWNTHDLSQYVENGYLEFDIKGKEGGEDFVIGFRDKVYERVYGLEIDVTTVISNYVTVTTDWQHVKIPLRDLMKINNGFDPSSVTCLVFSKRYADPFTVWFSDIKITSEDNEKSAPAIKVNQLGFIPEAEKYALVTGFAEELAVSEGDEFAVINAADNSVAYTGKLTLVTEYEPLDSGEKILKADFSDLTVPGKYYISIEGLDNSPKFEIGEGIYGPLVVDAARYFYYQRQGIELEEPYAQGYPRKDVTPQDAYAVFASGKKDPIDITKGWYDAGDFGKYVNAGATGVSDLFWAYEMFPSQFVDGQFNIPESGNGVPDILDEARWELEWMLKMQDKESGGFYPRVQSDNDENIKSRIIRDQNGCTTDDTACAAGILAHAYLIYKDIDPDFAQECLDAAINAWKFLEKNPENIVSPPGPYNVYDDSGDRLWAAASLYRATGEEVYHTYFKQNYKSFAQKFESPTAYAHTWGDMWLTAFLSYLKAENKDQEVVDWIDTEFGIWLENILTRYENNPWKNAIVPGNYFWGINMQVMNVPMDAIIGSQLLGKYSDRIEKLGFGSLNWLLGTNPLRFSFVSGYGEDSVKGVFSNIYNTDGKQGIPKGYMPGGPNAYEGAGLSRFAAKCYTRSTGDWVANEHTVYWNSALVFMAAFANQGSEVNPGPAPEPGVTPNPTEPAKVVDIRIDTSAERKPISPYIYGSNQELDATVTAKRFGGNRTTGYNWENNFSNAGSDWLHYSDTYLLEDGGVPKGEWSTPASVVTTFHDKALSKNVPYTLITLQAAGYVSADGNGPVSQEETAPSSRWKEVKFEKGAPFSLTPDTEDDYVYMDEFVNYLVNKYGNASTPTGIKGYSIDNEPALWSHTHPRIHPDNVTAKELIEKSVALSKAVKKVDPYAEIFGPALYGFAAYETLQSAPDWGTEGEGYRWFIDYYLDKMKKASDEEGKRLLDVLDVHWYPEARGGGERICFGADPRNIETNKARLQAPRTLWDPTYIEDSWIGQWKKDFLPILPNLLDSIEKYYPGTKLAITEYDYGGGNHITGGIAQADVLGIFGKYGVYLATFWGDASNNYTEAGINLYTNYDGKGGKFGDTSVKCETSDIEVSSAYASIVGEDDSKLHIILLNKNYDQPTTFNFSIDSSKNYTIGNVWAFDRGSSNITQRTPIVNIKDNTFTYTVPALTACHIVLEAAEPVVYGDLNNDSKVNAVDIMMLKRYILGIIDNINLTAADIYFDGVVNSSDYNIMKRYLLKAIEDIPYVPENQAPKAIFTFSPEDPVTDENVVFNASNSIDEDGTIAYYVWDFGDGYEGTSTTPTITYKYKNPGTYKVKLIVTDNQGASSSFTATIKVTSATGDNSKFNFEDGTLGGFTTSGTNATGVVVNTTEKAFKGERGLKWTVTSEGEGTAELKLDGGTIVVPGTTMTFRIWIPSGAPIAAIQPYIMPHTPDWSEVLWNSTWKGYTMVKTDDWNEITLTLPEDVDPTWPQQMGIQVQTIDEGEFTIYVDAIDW

Cel5-26H = molecular target: T5, Cel5-26H (Acetivibrio thermocellus, UniProt P16218)
T5 construct: gene celH; signal peptide removed, GH5 and GH26 modules, dockerin kept, His-tag, E. coli BL21
T5 sequence (P16218 45-900): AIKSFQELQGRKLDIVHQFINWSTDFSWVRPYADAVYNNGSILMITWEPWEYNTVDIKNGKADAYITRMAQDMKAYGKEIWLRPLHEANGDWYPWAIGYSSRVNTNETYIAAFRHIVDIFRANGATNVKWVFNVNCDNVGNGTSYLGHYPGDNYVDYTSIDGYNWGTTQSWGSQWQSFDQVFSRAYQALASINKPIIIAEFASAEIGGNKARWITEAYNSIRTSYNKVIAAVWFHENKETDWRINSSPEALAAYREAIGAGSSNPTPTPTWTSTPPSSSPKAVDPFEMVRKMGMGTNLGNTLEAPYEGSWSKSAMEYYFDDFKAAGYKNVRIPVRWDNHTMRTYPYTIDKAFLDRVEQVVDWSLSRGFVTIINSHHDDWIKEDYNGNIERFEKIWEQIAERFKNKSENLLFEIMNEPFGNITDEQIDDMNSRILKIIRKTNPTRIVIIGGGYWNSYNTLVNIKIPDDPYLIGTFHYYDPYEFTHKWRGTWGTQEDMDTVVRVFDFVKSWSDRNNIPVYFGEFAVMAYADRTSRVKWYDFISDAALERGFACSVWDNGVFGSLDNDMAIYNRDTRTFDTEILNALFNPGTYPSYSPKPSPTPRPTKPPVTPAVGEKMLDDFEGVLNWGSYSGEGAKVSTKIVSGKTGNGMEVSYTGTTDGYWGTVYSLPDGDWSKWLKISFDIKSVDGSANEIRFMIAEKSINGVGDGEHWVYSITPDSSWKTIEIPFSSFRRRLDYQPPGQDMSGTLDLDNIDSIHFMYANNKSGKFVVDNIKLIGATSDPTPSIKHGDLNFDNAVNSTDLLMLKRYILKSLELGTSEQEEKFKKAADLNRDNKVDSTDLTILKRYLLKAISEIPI

Cel9K = molecular target: T6, Cel9K (Acetivibrio thermocellus, UniProt A3DCH1)
T6 construct: gene celK; signal peptide removed, dockerin kept, His-tag, codon-optimised synthetic gene, E. coli BL21
T6 sequence (A3DCH1 28-895): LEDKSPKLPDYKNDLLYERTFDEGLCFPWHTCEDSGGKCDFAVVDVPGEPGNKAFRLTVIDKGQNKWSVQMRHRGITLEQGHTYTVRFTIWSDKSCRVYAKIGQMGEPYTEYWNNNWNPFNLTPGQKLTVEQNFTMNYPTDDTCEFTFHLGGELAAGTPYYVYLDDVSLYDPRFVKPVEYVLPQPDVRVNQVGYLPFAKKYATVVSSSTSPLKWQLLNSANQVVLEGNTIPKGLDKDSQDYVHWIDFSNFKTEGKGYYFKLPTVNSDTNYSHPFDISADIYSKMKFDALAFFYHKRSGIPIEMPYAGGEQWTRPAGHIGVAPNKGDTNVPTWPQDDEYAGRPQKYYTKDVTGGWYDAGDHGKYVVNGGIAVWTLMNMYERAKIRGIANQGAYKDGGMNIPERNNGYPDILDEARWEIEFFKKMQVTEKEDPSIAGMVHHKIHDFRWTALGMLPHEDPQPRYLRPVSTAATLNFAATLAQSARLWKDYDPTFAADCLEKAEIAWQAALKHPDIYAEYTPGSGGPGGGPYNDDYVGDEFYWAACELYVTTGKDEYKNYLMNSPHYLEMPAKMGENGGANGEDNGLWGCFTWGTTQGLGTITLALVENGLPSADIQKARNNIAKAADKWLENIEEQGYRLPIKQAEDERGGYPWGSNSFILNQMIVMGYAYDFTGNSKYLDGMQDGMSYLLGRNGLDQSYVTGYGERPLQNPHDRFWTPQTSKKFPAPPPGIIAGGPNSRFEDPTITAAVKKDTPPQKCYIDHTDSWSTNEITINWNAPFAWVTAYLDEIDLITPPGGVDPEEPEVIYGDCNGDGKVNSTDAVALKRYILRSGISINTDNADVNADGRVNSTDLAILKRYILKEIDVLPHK

SMILES: OC[C@H]1O[C@@H](O[C@H]2[C@H](O)[C@@H](O)[C@H](O[C@H]3[C@H](O)[C@@H](O)[C@H](O[C@H]4[C@H](O)[C@@H](O)[C@H](O[C@H]5[C@H](O)[C@@H](O)[C@H](O[C@H]6[C@H](O)[C@@H](O)C(O)O[C@@H]6CO)O[C@@H]5CO)O[C@@H]4CO)O[C@@H]3CO)O[C@@H]2CO)[C@H](O)[C@@H](O)[C@@H]1O (stereo partly drawn) [cellohexaose]
- TLC product analysis (Cel9T): characterized by their indiscriminate scission of cello-oligosaccharides
- TLC product analysis (Cel9D): confirmed by the hydrolysis products from cello-oligosaccharides as substrate
- TLC product analysis (Cbh9A): released specifically cellobiose as the only product over time (Cel48S, Cel9K, and Cbh9A)
- TLC product analysis (Cel9-44J): characterized by their indiscriminate scission of cello-oligosaccharides
- TLC product analysis (Cel5-26H): characterized by their indiscriminate scission of cello-oligosaccharides
- TLC product analysis (Cel9K): released specifically cellobiose as the only product over time (Cel48S, Cel9K, and Cbh9A)
